Measured values published in ChEMBL document CHEMBL1128936, “Protein-ligand interactions. 6 nicotinic acetylcholine receptor agonist activity of isoquinoline alkaloids” (Bioorg Med Chem Lett, 1996).
Where “and” joins values, the source holds several entries; their conditions need not be identical. Equal entries are not always repeated.

What was measured:
[1] = target: T1, Acetylcholine receptor subunit delta (Torpedo californica) (UniProt P02718); experiment: Compound was tested for its binding affinity against nicotinic acetylcholine receptor by spectrometry assay; conditions: torpedo fuscomaculata
T1 sequence (whole entry): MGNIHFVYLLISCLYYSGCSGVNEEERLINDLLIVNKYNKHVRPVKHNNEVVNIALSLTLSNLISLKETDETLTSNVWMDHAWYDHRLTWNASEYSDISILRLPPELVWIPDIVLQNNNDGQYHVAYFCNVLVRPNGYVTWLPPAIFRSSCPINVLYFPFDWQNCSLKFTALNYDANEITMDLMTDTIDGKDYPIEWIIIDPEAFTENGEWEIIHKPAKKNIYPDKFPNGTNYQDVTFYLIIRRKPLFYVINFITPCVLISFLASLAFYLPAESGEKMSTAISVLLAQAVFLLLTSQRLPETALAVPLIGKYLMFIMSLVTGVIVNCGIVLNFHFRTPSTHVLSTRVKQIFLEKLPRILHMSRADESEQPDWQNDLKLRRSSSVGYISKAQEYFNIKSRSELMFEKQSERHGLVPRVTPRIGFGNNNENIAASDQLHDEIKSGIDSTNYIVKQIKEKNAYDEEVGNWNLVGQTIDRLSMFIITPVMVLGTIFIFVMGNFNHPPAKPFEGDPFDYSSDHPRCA

[2] = target: T1, Acetylcholine receptor subunit delta (Torpedo californica); experiment: Compound was tested for its binding affinity against nicotinic acetylcholine receptor by fluorimetry assay; conditions: torpedo fuscomaculata

Row | SMILES | Bmax [1] [µM] | Kd1 [1] [µM] | Kd2 [1] | Bmax [2] [µM] | Kd1 [2] [µM] | Kd2 [2] [µM]
1 | COc1ccc(Cc2nccc3cc(OC)c(OC)cc23)cc1OC | 2.07 | 2.4 | 31 µM and 29 µM | 0.27 | 1.7 | –
2 | c1ccc2cnccc2c1 | 1.86 | 3.3 | 51.6 µM | 0.31 | 3.1 | 49
3 | COc1ccc2cc3[n+](cc2c1OC)CCc1cc2c(cc1-3)OCO2 | 2.14 | 0.84 | 27 µM and 34 µM | 0.31 | 0.77 | –
4 | CC(=O)OCC[N+](C)(C)C | – | 0.18 | 3 µM | – | 0.12 | 2.3
5 | COc1cc2c3cc1Oc1cc(ccc1O)C[C@@H]1c4c(cc(OC)c(O)c4Oc4ccc(cc4)C[C@@H]3N(C)CC2)CC[N+]1(C)C | – | 0.03 | 8 µM | – | 0.05 | 11.4
